Experimental data taken from the NIST ThermoML archive (doi:10.1016/j.jct.2013.11.022).
Numbers after ± are expanded uncertainties.

Test: mn = molality of the nth substance listed, in mol/kg
Conditions: 101.33 kPa, Liquid; for viscosity: Capillary tube (Ostwald / Ubbelohde) method; for speed of sound: Sing-around technique in a fixed-path interferometer; for mass density: Vibrating tube method

NCC(=O)O [2-aminoacetic acid] + O
Conditions | mass density [kg/m3] | speed of sound [m/s] | viscosity [mPa·s]
293.15 K, m1 = 0.05 | 999.804 ± 0.11 | 1486.2 ± 1.2 | 1.013 ± 0.021
293.15 K, m1 = 0.0999 | 1001.4 ± 0.11 | 1488.6 ± 1.2 | 1.022 ± 0.021
293.15 K, m1 = 0.1499 | 1002.99 ± 0.11 | 1491.1 ± 1.2 | 1.029 ± 0.022
293.15 K, m1 = 0.2001 | 1004.57 ± 0.11 | 1493.6 ± 1.2 | 1.036 ± 0.022
293.15 K, m1 = 0.2504 | 1006.14 ± 0.11 | 1496 ± 1.2 | 1.039 ± 0.022
293.15 K, m1 = 0.2999 | 1007.67 ± 0.11 | 1498.4 ± 1.2 | 1.048 ± 0.022
293.15 K, m1 = 0.3501 | 1009.21 ± 0.11 | 1500.8 ± 1.2 | 1.056 ± 0.022
293.15 K, m1 = 0.3998 | 1010.72 ± 0.11 | 1503.2 ± 1.2 | 1.06 ± 0.022
298.15 K, m1 = 0.05 | – | 1500.3 ± 1.2 | 0.8991 ± 0.019
298.15 K, m1 = 0.0999 | 1000.21 ± 0.11 | 1502.7 ± 1.2 | 0.908 ± 0.019
298.15 K, m1 = 0.1499 | 1001.78 ± 0.11 | 1505.1 ± 1.2 | 0.9168 ± 0.019
298.15 K, m1 = 0.2001 | 1003.34 ± 0.11 | 1507.5 ± 1.2 | 0.9232 ± 0.019
298.15 K, m1 = 0.2504 | 1004.9 ± 0.11 | 1510 ± 1.2 | 0.9281 ± 0.019
298.15 K, m1 = 0.2999 | 1006.41 ± 0.11 | 1512.3 ± 1.2 | 0.933 ± 0.02
298.15 K, m1 = 0.3501 | 1007.93 ± 0.11 | 1514.7 ± 1.2 | 0.9379 ± 0.02
298.15 K, m1 = 0.3998 | 1009.43 ± 0.11 | 1517 ± 1.2 | 0.946 ± 0.02
303.15 K, m1 = 0.05 | – | 1512.6 ± 1.2 | 0.8077 ± 0.017
303.15 K, m1 = 0.0999 | 998.773 ± 0.11 | 1514.9 ± 1.2 | 0.8177 ± 0.017
303.15 K, m1 = 0.1499 | 1000.33 ± 0.11 | 1517.3 ± 1.2 | 0.8258 ± 0.017
303.15 K, m1 = 0.2001 | 1001.88 ± 0.11 | 1519.6 ± 1.2 | 0.8319 ± 0.017
303.15 K, m1 = 0.2504 | 1003.42 ± 0.11 | 1522 ± 1.2 | 0.8398 ± 0.018
303.15 K, m1 = 0.2999 | 1004.92 ± 0.11 | 1524.2 ± 1.2 | 0.8434 ± 0.018
303.15 K, m1 = 0.3501 | 1006.43 ± 0.11 | 1526.5 ± 1.2 | 0.8511 ± 0.018
303.15 K, m1 = 0.3998 | 1007.92 ± 0.11 | 1528.8 ± 1.2 | 0.8533 ± 0.018
308.15 K, m1 = 0.05 | 995.577 ± 0.11 | 1523.1 ± 1.2 | 0.7296 ± 0.015
308.15 K, m1 = 0.0999 | 997.132 ± 0.11 | 1525.4 ± 1.2 | 0.7366 ± 0.015
308.15 K, m1 = 0.1499 | 998.677 ± 0.11 | 1527.7 ± 1.2 | 0.7404 ± 0.016
308.15 K, m1 = 0.2001 | 1000.22 ± 0.11 | 1530 ± 1.2 | 0.7474 ± 0.016
308.15 K, m1 = 0.2504 | 1001.75 ± 0.11 | 1532.2 ± 1.2 | 0.7518 ± 0.016
308.15 K, m1 = 0.2999 | 1003.24 ± 0.11 | 1534.4 ± 1.2 | 0.7578 ± 0.016
308.15 K, m1 = 0.3501 | 1004.74 ± 0.11 | 1536.7 ± 1.2 | 0.7641 ± 0.016
308.15 K, m1 = 0.3998 | 1006.21 ± 0.11 | 1538.9 ± 1.2 | 0.7679 ± 0.016
313.15 K, m1 = 0.05 | – | 1532.1 ± 1.2 | 0.6609 ± 0.014
313.15 K, m1 = 0.0999 | – | 1534.3 ± 1.2 | 0.6662 ± 0.014
313.15 K, m1 = 0.1499 | – | 1536.5 ± 1.2 | 0.6686 ± 0.014
313.15 K, m1 = 0.2001 | – | 1538.7 ± 1.2 | 0.6721 ± 0.014
313.15 K, m1 = 0.2504 | 999.881 ± 0.11 | 1540.9 ± 1.2 | 0.6759 ± 0.014
313.15 K, m1 = 0.2999 | 1001.36 ± 0.11 | 1543.1 ± 1.2 | 0.6798 ± 0.014
313.15 K, m1 = 0.3501 | 1002.86 ± 0.11 | 1545.3 ± 1.2 | 0.6851 ± 0.014
313.15 K, m1 = 0.3998 | 1004.33 ± 0.11 | 1547.5 ± 1.2 | 0.6881 ± 0.014
